Assay results published in PubChem BioAssay AID720495 (Broad Institute, 2013).
Where “and” joins values, the source holds several entries; their conditions need not be identical. Equal entries are not always repeated. Inconclusive results are not listed. Calls of active or inactive are those of the source. The rule behind the calls is not given here.

target: Protein AF-9 (Homo sapiens) (UniProt P42568); experiment: AF9 binding to AF4 blockers, potency – biochemical, cherry-picked samples, plate reader, dose response (AID 720495); settings: biochemical protein-protein interaction assay
Sequence (P42568 whole entry, looked up): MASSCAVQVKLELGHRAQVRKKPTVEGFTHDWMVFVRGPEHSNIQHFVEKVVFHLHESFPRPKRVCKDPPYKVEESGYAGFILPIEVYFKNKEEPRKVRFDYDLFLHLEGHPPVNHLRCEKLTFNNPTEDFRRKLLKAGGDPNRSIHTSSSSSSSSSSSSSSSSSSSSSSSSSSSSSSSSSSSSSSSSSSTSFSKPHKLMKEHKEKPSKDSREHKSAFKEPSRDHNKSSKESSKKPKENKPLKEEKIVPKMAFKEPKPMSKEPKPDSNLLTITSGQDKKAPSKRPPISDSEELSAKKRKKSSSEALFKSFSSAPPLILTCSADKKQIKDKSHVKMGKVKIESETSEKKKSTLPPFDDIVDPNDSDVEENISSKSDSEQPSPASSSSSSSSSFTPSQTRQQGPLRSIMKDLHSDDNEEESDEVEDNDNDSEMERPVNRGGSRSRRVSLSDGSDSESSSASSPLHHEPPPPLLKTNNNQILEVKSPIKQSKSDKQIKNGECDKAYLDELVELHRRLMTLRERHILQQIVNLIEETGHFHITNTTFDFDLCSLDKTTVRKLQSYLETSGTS

SMILES | AC50
COc1cc(C2CC(=O)Oc3c(C(CCN4CCOCC4)c4ccc(N(C)C)cc4)c(OC)cc(OC)c32)cc(OC)c1OC (stereo not drawn) | 1.55 µM
CCN(CC)c1ccc(C(=C2C=CC(=[N+](CC)CC)C=C2)c2ccccc2)cc1 | 0.685 µM
C#CCOCCOCCOCCNc1nc(N2CCN(C(=O)[C@H]([C@@H](C)CC)n3cc(CCCN=C(N)N)nn3)CC2)nc(N2CCN(C(=O)[C@H](CCCCN)n3cc(CCCC)nn3)CC2)n1 | 8.98 µM
COc1ccccc1C#Cc1ccc2c(c1)[C@H]1[C@H](CCN1C(=O)c1ccncc1)[C@@H](CO)N2 | 7.63 µM
O=C1C(NS(=O)(=O)c2ccc(Cl)cc2)=C(N2CCCCC2)C(=O)c2ccccc21 | < 0.08 µM
NC(N)=N/N=C/c1cn(-c2ccccc2)nc1-c1cccs1 | 3.92 µM
COc1cccc(NC2=C(NCCO)C(=O)c3ccccc3C2=O)c1 | 6.38 µM
COc1ccc2[nH]c3c(C)c4cc[n+](C)cc4c(C)c3c2c1 | 3.07 µM
O=C(/C(=N/N=C/c1ccc(O)c(O)c1)c1ccccc1)c1ccccc1 | 1.62 µM
N=C1C=CC(=C(c2ccc(N)cc2)c2ccc(N)cc2)C=C1 | 6.08 µM
CC(=NNC(=S)N1CCN(C2CCCCCC2)CC1)c1ccccn1 | 0.687 µM
COc1ccc(NCc2nn(CC(=O)c3ccc(Br)cc3)c3[n+]2CCCCC3)cc1 | 8.83 µM
CCN(CC)CCOc1ccc(/C(=C(/Cl)c2ccccc2)c2ccccc2)cc1 | 0.529 µM
CCn1c(-c2ccccc2)csc1=Nc1ccc(O)cc1 | 6.97 µM
CN1CCN(CCCCOc2ccccc2C=O)CC1 | 10.6 µM
CCN(CCCl)c1cc(CN(C)C)cc(NC(=O)c2ccc(C(=O)Nc3cc(CN(C)C)cc(N(CC)CCCl)c3)cc2)c1 | 0.683 µM
CN(C)CC/C=C1/c2ccc(F)cc2Sc2ccc(Cl)cc21 | 5.01 µM
COc1ccc(C(CCNCc2ccc(N(C)C)cc2)C(C)C)cc1 (stereo not drawn) | 2.88 µM
N=C(N)c1ccc(/C=C/c2ccc(C(=N)N)cc2O)cc1 | 3.33 µM
CN1CCN(c2ccc(N)cc2Cl)CC1 | 2.11 µM
CSC(=S)N/N=C/c1c[nH]c2ccccc12 | 11.5 µM
N#C/C(C(N)=O)=c1/ccc2c(c1)N1C3=C(CCCC3)CC3CCCCC31N=2 (stereo not drawn) | 0.767 µM
O=C1C(Cl)=CC(=Nc2ccc(O)cc2)C=C1Cl | 11.4 µM
CN(C)c1ccc(N=Cc2cccn2C)cc1 | 0.83 µM
CCC1CN2CCc3cc(OC)c(OC)cc3C2CC1CC1NCCc2c1[nH]c1ccc(O)cc21 (stereo not drawn) | 7.26 µM
CN1CCN(C(c2ccc(Br)cc2)c2cc(Cl)c3cccnc3c2O)CC1 (stereo not drawn) | 1.47 µM
O=C(CN1CCCC1)N/N=C/c1c(O)ccc2ccccc12 | 0.249 µM

SMILES | AC50
COc1cc(NCCCCCCN)c2ncccc2c1OC | 2.62 µM
CCCCCc1cc(=O)oc2c(C(CCN3CCCC3)c3ccc(N(C)C)cc3)c(OC)cc(OC)c12 (stereo not drawn) | 2.31 µM
CN1CCN(C(c2ccccn2)c2cc(Cl)c3cccnc3c2O)CC1 (stereo not drawn) | 2.05 µM
CCN(CC)c1ccc(CNc2ccc3c(c2)ncn3C(C)(C)C)cc1 | 3.48 µM
CCOc1ccc(NCc2cccn2-c2nnc(N3CCC(C(=O)NCCCN4CCCCC4)CC3)s2)cc1 | 5.94 µM
CCOc1ccc(NCc2cccn2-c2nnc(N3CCC(C(=O)NCCCN4CCCCC4C)CC3)s2)cc1 (stereo not drawn) | 4.96 µM
O=C1c2c(O)ccc(O)c2C(=O)c2c(NCCNCCO)ccc(NCCNCCO)c21 | 0.15 µM and 0.374 µM
CN1CCN(C(c2ccc(C(F)(F)F)cc2)c2cc(Cl)c3cccnc3c2O)CC1 (stereo not drawn) | 1.54 µM
CCCN(CC1CC1)c1cc2c(c3c1ccn3C)C1CCC2C1 (stereo not drawn) | 7.79 µM
O=C(O)CCCNc1cc(N2CCN(C(=O)c3ccco3)CC2)c2noc3c2c1C(=O)c1ccccc1-3 | 10.6 µM
CCN(Cc1ccccc1)c1ccc(/C=N/N=C(N)N)cc1 | 4.43 µM
Oc1c(C(c2ccccc2Cl)N2CCCC2)ccc2cccnc12 (stereo not drawn) | 0.995 µM
COc1ccccc1C(CCNCc1ccc(N(C)C)cc1)c1ccc(OC(C)C)cc1 (stereo not drawn) | 3.3 µM
O=C(Nc1ccc(N2CCCCCC2)cc1)c1ccc[nH]1 | 5.21 µM
Cc1[nH]c2ccccc2c1C(C#N)(C#N)C1C(=O)c2ccccc2C1=O | 0.981 µM
Cc1ncc(CO)c(/C=N/NC(=S)Nc2ccc(Cl)c(Cl)c2)c1O | 5.79 µM
CN(C)c1ccc(N=C/C=C2/N(C)c3ccccc3C2(C)C)cc1 | 7.5 µM
O=C(COc1cc(F)ccc1[N+](=O)[O-])Nc1ccc(N2CCCCC2)cc1 | 9.04 µM
COC1=C(Nc2ccc(O)cc2)C(=O)c2ccccc2C1=O | 9.8 µM
CCc1cccc(NC(=O)CCCCCC2NC(=O)NC2C)c1 (stereo not drawn) | < 0.08 µM
C#CCOCCOCCOCCNc1nc(N2CCN(C(=O)[C@H](CCCN=C(N)N)n3cc(C(N)[C@@H](C)CC)nn3)CC2)nc(N2CCN(C(=O)[C@H](CCCCN)n3cc([C@@H](N)[C@H](C)CC)nn3)CC2)n1 (stereo partly drawn) | 3.6 µM
CCc1nc2ccc(C(=O)NC3CCN(Cc4ccccc4)CC3)cn2c1N(C)Cc1ccc(N(C)C)cc1 | 5.52 µM
CC(C)(c1ccccc1)c1ccc(OCC(O)CNC2CCN(Cc3ccccc3)CC2)cc1 (stereo not drawn) | 0.841 µM
COc1cc(OC)c2c(-c3ccccc3)cc(=O)oc2c1C(CCN1CCCC(C)C1)c1ccc(N(C)C)cc1 (stereo not drawn) | 0.943 µM
CC(C)Nc1ccc(Nc2ccccc2)cc1 | 10.9 µM
C#CCOCCOCCOCCNc1nc(N2CCN(C(=O)[C@H](CCCCN)n3cc([C@@H](N)C(C)CC)nn3)CC2)nc(N2CCN(C(=O)[C@H](CCCCN)n3cc([C@@H](N)CC(C)C)nn3)CC2)n1 (stereo partly drawn) | 0.702 µM

same assay, conditions: biochemical protein-protein interaction assay, at 10 µM (top of the series)

SMILES | activity change, negative = inhibition
CCC(=O)N(C)C[C@H]1Oc2cc(C#Cc3ccncc3)ccc2S(=O)(=O)N([C@@H](C)CO)C[C@@H]1C | inactive
COc1ccc(OC)c(C2=NOC(C(=O)Nc3c(C)n(C)n(-c4ccccc4)c3=O)C2)c1 (stereo not drawn) | inactive
CC(=O)Nc1ccc(S(=O)(=O)NC2=C(N3CCN(Cc4ccccc4)CC3)C(=O)c3ccccc3C2=O)cc1 | inactive
CNC(=S)N1N=C(c2ccc(Br)cc2)CC1c1ccc(N(C)C)cc1 (stereo not drawn) | inactive
O=C(N/N=C/c1sc(N2CCCCC2)nc1-c1cccs1)C1CC1 | inactive
CN(C)C(CNC(C(=O)Nc1ccc([N+](=O)[O-])cc1Br)c1ccccc1)c1ccccc1 (stereo not drawn) | inactive
Oc1ccccc1C=NCCCCCCN=Cc1ccccc1O | inactive
O=[N+]([O-])c1cc(/C=N/Nc2nc3ccccc3[nH]2)c(O)cc1O | inactive
C[C@H](CO)N1C[C@H](C)[C@H](CN(C)CC2CC2)OCCCC[C@H](C)Oc2ccc(NC(=O)Nc3ccc4c(c3)OCO4)cc2C1=O | inactive
Cn1ccc2c(N3CCCCCC3)cc3c(c21)C1CCC3C1 (stereo not drawn) | inactive
Oc1ccccc1C=NCCN1CCN(CCN=Cc2ccccc2O)C1c1ccccc1O (stereo not drawn) | inactive
S=C(NN=C(c1ccccc1)c1ccccn1)N(Cc1ccccn1)Cc1ccccn1 | inactive
C[C@H](CO)N1C[C@H](C)[C@H](CN(C)Cc2ccc(C(F)(F)F)cc2)OCCCC[C@H](C)Oc2ccc(N(C)C)cc2C1=O | inactive
COc1cc(O)c(C(CCN2CCN(c3ccccc3)CC2)c2ccc(N(C)C)cc2)c(OC)c1 (stereo not drawn) | inactive
O=c1c2ccccc2nc(/C=C/c2cccnc2)n1Cc1ccccc1 | inactive
c1ccc(C2=Nc3c(ccc4ccccc34)C(c3ccncc3)=NN2)cc1 | inactive
Cc1ccc(S(=O)(=O)NC(=O)Nc2ccc(N(C)C)cc2)cc1 | inactive
COc1ccc(N2CCN(C(=O)C3CCCN(S(=O)(=O)c4c(C)noc4C)C3)CC2)cc1 (stereo not drawn) | inactive
COc1cccc(-c2sc3ccccc3c2-c2ccc(OCCN(C)C)cc2)c1 | inactive
COc1ccc(N2CCN(c3cc(C)nc4ccc(OC)cc34)CC2)cc1 | inactive

SMILES | activity change, negative = inhibition
Cc1cc(N=Nc2ccc(Cl)cc2)cc(CN2CCCC2)c1O | inactive
Cc1ccsc1/C=N/N1CCN(Cc2ccccc2)CC1 | inactive
c1ccc2c(Nc3ccc4c(c3)OCCO4)c3c(nc2c1)CCCC3 | inactive
CCOC(=O)C1CCCN(C2=C(NS(=O)(=O)c3ccc(Br)cc3)C(=O)c3ccccc3C2=O)C1 (stereo not drawn) | inactive
O=C(N/N=C/c1cc(Cl)cc([N+](=O)[O-])c1O)c1cccc(S(=O)(=O)N2CCOCC2)c1 | inactive
CCOc1ccc(Nc2ccc([N+](=O)[O-])c3nonc23)cc1 | inactive
COc1cccc(OCC(O)CN2CCC(CN3C(=O)c4cccc5cccc(c45)C3=O)CC2)c1 (stereo not drawn) | inactive
C#CCOCCOCCOCCNc1nc(N2CCN(C(=O)C([C@@H](C)O)n3cc([C@@H](N)CCCCN)nn3)CC2)nc(N2CCN(C(=O)C([C@@H](C)O)n3cc([C@@H](N)CCCCN)nn3)CC2)n1 (stereo partly drawn) | inactive
CCN1CCN(Cc2ccc(NC(=O)c3cc(NC(=O)c4nccnc4N)cc(OC)c3)cc2C(F)(F)F)CC1 | inactive
NC(=O)C1CCN(C2=C(NS(=O)(=O)c3ccc(Br)cc3)C(=O)c3ccccc3C2=O)CC1 | inactive
Cn1ccc2c(N3CCCCC3)cc3c(c21)C1CCC3C1 (stereo not drawn) | inactive
COc1ccc(C)cc1Nc1n[n+](-c2ccccc2)c(-c2c(Cl)cccc2Cl)s1 | inactive
COc1ccccc1N1CCN(/N=C/C=C\c2ccccc2[N+](=O)[O-])CC1 | inactive
COc1ccc(N2CCN(C3CCCCC3NS(=O)(=O)c3ccccc3)CC2)cc1 (stereo not drawn) | inactive
C/C(=N\Nc1nc2ccccc2[nH]1)c1ccc2c(c1)OCO2 | inactive
COc1ccc(N2CCN(C3CCCN(S(=O)(=O)c4ccc(C)cc4C)C3)CC2)cc1 (stereo not drawn) | inactive
COc1ccccc1NC(c1cccnc1)c1ccc2cccnc2c1O (stereo not drawn) | inactive
Cc1cc(N=Nc2ccc(Cl)cc2)cc(CN2CCOCC2)c1O | inactive
COCCCNCC(O)COc1cccc2[nH]c(C)cc12 (stereo not drawn) | inactive
CCN1CCN(c2ccc(N)c(C)c2)CC1 | inactive
